Test results reported in patent US7858646B2, “Potentiators of glutamate receptors” (Eli Lilly and Company, priority 2004, dated 2010).

How the values were obtained:
[1] = molecular target: T1, human CysLT1 receptor (Homo sapiens, UniProt Q9Y271); assay: Antagonism of LTD4-induced increase in intracellular calcium within a CysLT1 receptor expressing cell line (FLIPR); assay type: cell-based; details: AV12-664 cells expressing human CysLT1; 6 nM LTD4; read-out: antagonism of CysLT1 receptors, IC50
T1 construct: expressed in transfected cells; host or cells: AV12-664 (ATCC-9595)
T1 sequence (Q9Y271 1-337): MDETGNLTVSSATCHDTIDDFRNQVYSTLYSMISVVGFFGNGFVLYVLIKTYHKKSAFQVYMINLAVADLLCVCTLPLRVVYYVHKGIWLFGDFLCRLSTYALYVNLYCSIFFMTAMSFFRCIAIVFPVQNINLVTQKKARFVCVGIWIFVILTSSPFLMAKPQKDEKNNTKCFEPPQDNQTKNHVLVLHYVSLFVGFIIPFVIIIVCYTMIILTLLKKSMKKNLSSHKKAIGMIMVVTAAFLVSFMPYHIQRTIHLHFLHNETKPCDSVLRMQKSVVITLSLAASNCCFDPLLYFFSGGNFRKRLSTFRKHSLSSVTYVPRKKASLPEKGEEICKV
Protocol: Antagonism of Cysteinyl-leukotriene D4 (LTD4)-Induced Increase in Intracellular Calcium within a Cysteinyl-Leukotriene 1 (CysLT1) Receptor Expressing Cell Line.
Cell lines expressing the human CysLT1 receptor [AV12-664 (ATCC-9595)] are derived and maintained in culture media: DMEM with 5% dialyzed fetal bovine serum, 1 mM glutamine, and 1 mM sodium pyruvate. Confluent cultures are passaged weekly. Intracellular calcium levels are monitored in the CysLT1-expressing cells with the addition of LTD4, with or without prior exposure to the compounds being tested as antagonists with a Fluorometric Imaging Plate Reader (FLIPR, Molecular Devices). The following buffer is used throughout as an assay buffer: Hanks Buffered Saline Solution without phenol red (GIBCO), with 10 mM HEPES pH 7.4. Cells that had been plated 48 hours prior at a density of 20-25,000 cells per well in a 96-well plate are loaded with a calcium-sensitive dye for 90 minutes at 25° C. Fluo-3 (2 mM in DMSO, Molecular Probes) is mixed with an equal volume of 10% pluronic acid in DMSO, and diluted to 8 μM in the buffer described above containing 10% fetal bovine serum to make the loading buffer. Following loading of the cells, the buffer is removed and replaced with assay buffer prior to drug addition and monitoring on the FLIPR for several minutes. The resulting signal from the addition of 6 nM LTD4 (provides approximately 90% of the maximal signal with 25 nM LTD4) is determined by taking the difference of the maximal fluorescent peak height minus the background fluorescence in each well and expressing the results as a percent of the signal seen without pretreatment of the test compound(s). Least squares curve fitting with a four-parameter equation is applied to the resulting dose-% inhibition curve to determine the resulting IC50 values.

[2] = molecular target: T2, human mGlu2 receptors (Homo sapiens, UniProt Q14416); assay: Potentiation of glutamate-induced increase in intracellular calcium with a mGlu2 expressing cell line (FLIPR); assay type: cell-based; details: RGT cells expressing human mGlu2 and Galpha15; with submaximal glutamate (e.g. 1 μM)
T2 construct: expressed in transfected cells; host or cells: RGT cells (co-transfected with rat GLAST, stably transfected with Galpha15)
T2 sequence (Q14416 19-872): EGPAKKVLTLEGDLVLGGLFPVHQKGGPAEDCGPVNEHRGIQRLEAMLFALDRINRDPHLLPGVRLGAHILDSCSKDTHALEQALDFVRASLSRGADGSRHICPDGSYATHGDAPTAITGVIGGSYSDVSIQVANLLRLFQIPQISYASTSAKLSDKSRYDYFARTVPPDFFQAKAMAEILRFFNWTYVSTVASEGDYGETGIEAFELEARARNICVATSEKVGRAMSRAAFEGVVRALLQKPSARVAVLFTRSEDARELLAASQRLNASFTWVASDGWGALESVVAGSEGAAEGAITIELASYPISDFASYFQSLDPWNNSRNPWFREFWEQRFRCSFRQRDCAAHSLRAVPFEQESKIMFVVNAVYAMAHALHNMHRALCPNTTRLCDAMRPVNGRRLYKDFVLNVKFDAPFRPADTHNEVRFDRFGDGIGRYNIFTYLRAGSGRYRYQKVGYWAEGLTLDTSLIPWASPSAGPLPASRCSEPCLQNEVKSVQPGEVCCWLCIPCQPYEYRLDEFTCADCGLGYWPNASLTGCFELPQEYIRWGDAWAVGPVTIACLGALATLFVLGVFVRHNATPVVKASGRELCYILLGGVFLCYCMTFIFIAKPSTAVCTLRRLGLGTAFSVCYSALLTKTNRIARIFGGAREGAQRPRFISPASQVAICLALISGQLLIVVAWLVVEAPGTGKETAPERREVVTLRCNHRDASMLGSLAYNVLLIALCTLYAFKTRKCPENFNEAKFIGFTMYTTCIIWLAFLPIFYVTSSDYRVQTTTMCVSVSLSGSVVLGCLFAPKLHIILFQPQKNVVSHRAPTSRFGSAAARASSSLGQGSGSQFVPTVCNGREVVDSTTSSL
Protocol: Potentiation of Glutamate-Induced Increase in Intracellular Calcium with a mGlu2 Expressing Cell Line.
Cell lines expressing human mGlu2 receptors are derived as previously described (Desai, Burnett, Mayne, Schoepp, Mol. Pharmacol. 48, 648-657, 1995) and cultured in DMEM with 5% dialyzed fetal bovine serum, 1 mM glutamine, 1 mM sodium pyruvate, 50 μg/mL Geneticin G418, and 0.2 mg/mL hygromycin B. Confluent cultures are passaged weekly. These cells are referred to as RGT cells for Rat Glutamate Transporter, and have been co-transfected with the glutamate/aspartate transporter GLAST. The RGT cell line expressing the mGlu2 receptors is stably transfected with the promiscuous G-protein, Galpha15 to change the signaling pathway to the mGlu2 receptor to one that could be easily measured through release of intracellular calcium. Thus, intracellular calcium levels are monitored before and after the addition of drugs on a Fluorometric Imaging Plate Reader (i.e. FLIPR, Molecular Devices). The following buffer is used throughout as an assay buffer: 10 mM KCl, 138 mM NaCl, 5 mM Ca Cl2, 1 mM MgC2, 4 mM Na H2PO4, 10 mM Glucose, 10 mM HEPES, pH 7.4. Cells that had been plated 48 hours prior at a density of 30-40,000 cells per well in a 96-well plate are loaded with a calcium-sensitive dye for 90 minutes at 25° C. Fluo-3 (2 mM in DMSO, Molecular Probes) are mixed with a equal volume of 10% pluronic acid in DMSO, and diluted to 8 μM into the buffer described above containing 10% fetal bovine serum to make the loading buffer. Following loading of the cells, the loading buffer is removed and replaced with assay buffer prior to drug addition and monitoring on the FLIPR. The resulting signal from the addition of compounds of formula (I) and submaximal concentrations of a glutamate-site agonist (e.g. 1 μM glutamate) is determined by taking the difference of the maximal fluorescent peak height minus the background fluorescence in each well and expressing the results as a percent of the signal seen with a maximal glutamate response (30 μM glutamate, typically about 30-50,000 Relative Fluorescent Units). Least squares curve fitting with a four-parameter equation is then applied to the resulting dose-% response curve to determine the resulting EC50 values.

IC50 [1] | EC50 [2] | Structure (SMILES)
< 150 nM | < 350 nM | CC(=O)c1ccc(OCc2cccc(Oc3cc(-c4nn[nH]n4)ccn3)c2)c(C(F)(F)F)c1O [Example 27, 1-(2-Hydroxy-4-{3-[4-(2H-tetrazol-5-yl)-pyridin-2-yloxy]-benzyloxy}-3-trifluoromethyl-phenyl)-ethanone]
 | < 350 nM | CC(=O)c1ccc(OCc2ccc(Oc3cccc(-c4nn[nH]n4)c3)cc2)c(C)c1O [Example 22, 1-(2-Hydroxy-3-methyl-4-{4-[3-(1H-tetrazol-5-yl)-phenoxy]-benzyloxy}-phenyl)-ethanone]
< 150 nM | < 350 nM | CC(=O)c1ccc(OCc2ccc(Oc3cc(-c4nn[nH]n4)ccn3)cc2)c(C)c1O [Example 21, 1-(2-Hydroxy-3-methyl-4-{4-[4-(1H-tetrazol-5-yl)-pyridin-2-yloxy]-benzyloxy}-phenyl)-ethanone]
< 150 nM | < 350 nM | CCCc1c(OCc2cccc(Sc3cc(C(=O)O)ccn3)c2)ccc(C(C)=O)c1O [Example 84, 6-(3-((4-acetyl-3-hydroxy-2-propylphenoxy)methyl)phenylthio)isonicotinic acid]
